Tests used:
[1] = target: T1, Gag-Pol polyprotein (Human immunodeficiency virus type 1 group M subtype B (isolate NY5), UniProt P12497); assay: Capsid Assembly Assay
Excerpt: In vitro capsid assembly assay (CAA) was used in a HTS to identify potential inhibitors of capsid assembly.

[2] = target: T1, Gag-Pol polyprotein; assay: Capsid Assembly Assay; remark: listed apart in the source

SMILES | IC50 [1] [nM] | Kd [2] [nM]
CN(C)CCCn1c(-c2c[nH]nc2-c2ccccc2)nc2cc(-c3ccc(C(=O)O)cc3)ccc21 [Benzimidazole Inhibitor, 1] | 6100 | 43000
CN(C)CCCn1c(-c2c[nH]nc2-c2ccc(C(F)(F)F)cc2)nc2cc(-c3ccc(C(=O)O)cc3)ccc21 [Benzimidazole Inhibitor, 2] | 1200 | 4300
O=C(O)c1ccc(-c2ccc3c(c2)nc(-c2c[nH]nc2-c2ccc(C(F)(F)F)cc2)n3CCCn2ccnc2)cc1 [Benzimidazole Inhibitor, 3] | 1400 | 8000
O=C(O)c1ccc(-c2ccc3c(c2)nc(-c2c[nH]nc2-c2cccc(Cl)c2)n3CCCn2ccnc2)cc1 [Benzimidazole Inhibitor, 4] | 1200 | –
O=C(O)c1ccc(-c2ccc3c(c2)nc(-c2c[nH]nc2-c2ccc(C(F)(F)F)cc2)n3CCCN2CCCCC2)cc1 [Benzimidazole Inhibitor, 5] | 670 | –
O=C(O)c1ccc(-c2ccc3c(c2)nc(-c2c[nH]nc2-c2ccc(Cl)c(Cl)c2)n3CCCNC2CCCCC2)cc1 [Benzimidazole Inhibitor, 6] | 350 | 500
COCCN=CC1C(=O)N(C)c2ccc(C(F)(F)F)cc2N(c2ccccc2)C1=O (stereo unspecified) [Benzodiazepine Inhibitor, 7] | 890 | –
